{"source": "patent US20050256077A1", "about": "“Gastrointestinal stem cells and uses thereof” (priority 2004, published 2005)", "key": {"intestinal crypts [1]": {"tested_on": "intestinal crypts", "assay": "Model I: luminal delivery of cytotoxic drugs to clamped jejunal segment, crypt apoptosis by histology", "assay_type": "in vivo, mouse", "settings": "for apoptosis in experimental segments / apoptosis in upstream segments: luminal delivery to clamped jejunal segment for 4 hr, 20 mg/kg BW; for apoptosis in experimental segments: apoptotic bodies in H & E sections; for apoptosis in upstream segments: segment immediately upstream", "from_the_text": "A surgical model was developed that is simple and rapid enough to allow appropriate numbers of animals to be studied in a reasonable time period. To this end, a procedure was developed in which a 1 cm piece of jejunum is flushed and then clamped (with microvascular serrefines), the drug or vehicle was delivered to the clamped segment via a 27 gauge needle, the bowel is returned to the abdominal cavity and the incisions in both the peritoneum and the skin are sutured closed. The animal was allowed to regain consciousness for 4-6 hr. At the end of this time there was another brief isofluorane anesthesia, during which the original incisions are opened and the clamps are removed. In addition, at this time the location of the clamps was indicated by a piece of 5-0 silk.\nVarious doses of DOX and Bleomycin were delivered to clamped segments for 4 hr, then tissue from the experimental segment as well as a segment immediately upstream was collected for histology. Tissue sections were stained with H & E, and apoptosis was assessed by the presence of apoptotic bodies. For quantifying apoptotic cells, 10 crypts per animal (n=3) were selected and scored by a skilled artisan blinded to the experimental conditions. […] Thus, Bleomycin was being absorbed into the circulation and, thus, affecting the entire intestine. In contrast, DOX appears to be capable of local action, thus creating a suitable model for subsequent experiments.\nIn order to verify that luminally delivered DOX was affecting the stem cell region, the position of apoptotic cells within the crypt was scored. […] This is very similar to the pattern that has been previously reported following IP delivery of DOX (Ijiri and Potten, 1987)."}, "intestinal crypts [2]": {"tested_on": "intestinal crypts", "assay_type": "in vivo, mice", "protocol": "The following model is preferable for luminal delivery of stem cell preparations, particularly wherein a second clamping procedure, such as the day after the damage, is preferable. As there are already published studies on IP delivery of DOX to mice (Ijiri and Potten, 1987; Moore, 1985), minimal additional studies were needed to establish this model. However, although it was already known that an IP dose of 20 mg/kg/BW DOX elicits apoptosis predominantly in the stem cell zone (Ijiri and Potten, 1987) and ablates approximately 50% of the stem cells (Moore, 1985), a complete time course of apoptosis has not been reported. Considering the nature of the timing of stem cell delivery, an apoptosis time course was performed in FIG. 6. […] In contrast, gross morphologic damage is not seen until 72 hr and appears maximal by 96 hr (FIG. 7). By 120 hr the beginning of crypt regeneration from the remaining stem cells is apparent (not shown). Based on these findings, after DOX the optimal time for luminal delivery of stem cells is 6 hr. […] At the same time, a significant proportion of the endogenous stem cells have been ablated, creating an opportunity for the exogenous cells to engraft. The clamping procedure after IP delivery of DOX has been performed successfully, and no evidence was found of gross bleeding into the clamped segment. There is, however, significant morbidity after the IP DOX. For example, body weights initially fall to a similar extent to that after luminal DOX, but in the case of IP DOX they never recover. Although our 10-day survival data after IP DOX is 100%, the literature predicts 40-50% mortality over the next 2 weeks (Oredipe et al., 2003). However, if the myelosuppressive effects of DOX are countered by administration of the drug Swainsonine (Sigma-Aldrich), for example the mice can be maintained until at least 70 days with only 36% mortality (Oredipe et al., 2003)."}, "[3]": {"tested_on": "crypts of the mouse small intestine", "settings": "cited from earlier work; for i.p. dose that causes sterilization of 50% of crypts: dose-response data of Moore (1985)"}, "[4]": {"settings": "cited from earlier work"}, "[5]": {"settings": "mouse, in vivo; cited from earlier work"}, "[6]": {"settings": "cited from earlier work", "remark": "listed apart in the source"}, "[7]": {"settings": "cited from earlier work", "remark": "listed apart in the source"}, "i.p. LD50 (literature)": {"assay": "i.p. LD50 (literature)", "assay_type": "in vivo", "settings": "mice"}, "[8]": {"settings": "mice; cited from earlier work"}, "bone marrow": {"tested_on": "bone marrow", "settings": "administered systemically (Goodman and Gilman, 1975); cited from earlier work"}}, "data": [{"compound": "COc1cccc2c1C(=O)c1c(O)c3c(c(O)c1C2=O)C[C@@](O)(C(=O)CO)C[C@@H]3O[C@H]1C[C@H](N)[C@H](O)[C@H](C)O1", "note": "[DOX, doxorubicin]", "values": [{"measurement": "damage to the basement membrane or to the underlying stromal tissue", "setting": "intestinal crypts [1]; luminal DOX, light and EM levels", "result": "no evidence of damage"}, {"measurement": "apoptosis in experimental segments", "setting": "intestinal crypts [1]", "result": "significant apoptosis"}, {"measurement": "apoptosis in upstream segments", "setting": "intestinal crypts [1]", "result": "minimal effects"}, {"measurement": "time of apoptosis peak", "setting": "intestinal crypts [2]; IP DOX 20 mg/kg BW", "result": 6, "unit": "h"}, {"measurement": "time of beginning of crypt regeneration from remaining stem cells", "setting": "intestinal crypts [2]; IP DOX 20 mg/kg BW", "result": "≤ 120", "unit": "h"}, {"measurement": "time of maximal gross morphologic damage", "setting": "intestinal crypts [2]; IP DOX 20 mg/kg BW", "result": "≤ 96", "unit": "hr"}, {"measurement": "time until gross morphologic damage is seen", "setting": "intestinal crypts [2]; IP DOX 20 mg/kg BW", "result": 72, "unit": "hr"}, {"measurement": "apoptosis by 24 hr", "setting": "intestinal crypts [2]; IP DOX 20 mg/kg BW, 24 hr", "result": "greatly reduced"}, {"measurement": "body weights", "setting": "intestinal crypts [2]; mouse, in vivo, ip", "result": "never recover"}, {"measurement": "10-day survival", "setting": "intestinal crypts [2]; mouse, in vivo, ip, 10 day", "result": 100, "unit": "%"}, {"measurement": "small intestinal crypts sterilized", "setting": "[3]; IP 20 mg/kg BW (Moore, 1985)", "result": "approximately 50%"}, {"measurement": "stem cells ablated", "setting": "[3]; IP dose of 20 mg/kg/BW (Moore, 1985)", "result": "approximately 50%"}, {"measurement": "i.p. dose that causes sterilization of 50% of crypts", "setting": "[3]", "result": 15, "unit": "mg/kg"}, {"measurement": "removed by the liver in a single pass", "setting": "[4]", "result": 60, "unit": "%"}, {"measurement": "half-life", "setting": "[5]", "result": 35, "unit": "min"}, {"measurement": "solubility in normal saline", "setting": "[6]", "result": "soluble in normal saline"}, {"measurement": "mortality over the next 2 weeks", "setting": "[7]; after IP DOX, beyond 10 days, literature prediction", "result": "40-50%"}]}, {"compound": "O[C@H]1[C@H]2[C@H](O)CCCN2C[C@H]1O", "note": "[Swainsonine]", "values": [{"measurement": "mortality until at least 70 days", "setting": "[7]; Swainsonine given to counter myelosuppressive effects of DOX", "result": 36, "unit": "%"}]}, {"compound": "Bleomycin", "values": [{"measurement": "apoptosis in experimental segments", "setting": "intestinal crypts [1]", "result": "caused apoptosis"}, {"measurement": "apoptosis in upstream segments", "setting": "intestinal crypts [1]", "result": "caused apoptosis in both experimental segment and upstream segments"}, {"measurement": "i.p. LD50 relative to i.p. dose causing sterilization of 50% of intestinal crypts", "setting": "i.p. LD50 (literature)", "result": "~4", "unit": "fold"}, {"measurement": "i.p. dose that causes sterilization of 50% of crypts", "setting": "[3]", "result": 60, "unit": "mg/kg"}, {"measurement": "i.p. LD50", "setting": "[8]", "result": 210, "unit": "mg/kg"}, {"measurement": "solubility in normal saline", "setting": "[6]", "result": "soluble in normal saline"}, {"measurement": "toxicity to bone marrow", "setting": "bone marrow", "result": "minimal toxicity to bone marrow"}]}]}
